The subject of one test is AML2 cell line. Briefly: Cell killing assay (cytotoxicity) of IQB-CBI dimers, AML2. The note with it: 72 h; AML2 cells; 3-day incubation. Format: cell-based. How it is done: (§1) Cytotoxicity of D801, D803, D05, D807, D809, D811, D813, D815 and D817 were tested against AML2 and HL60 cell lines. Cell killing assay was performed after 3-day incubation with various IQB-CBI dimers.

For another test, the system named is HL60 cell line. Briefly: Cell killing assay (cytotoxicity) of IQB-CBI dimers, HL60. Format: cell-based. As to conditions: Homo sapiens, HL-60, 72 h; HL60 cells; 3-day incubation. How it is done: as §1
Test [1] deals with T1, human interleukin 1 receptor accessory protein (IL1RAP) (human, UniProt Q9NPH3 21-570).
T1 construct: The target is carried by human cell lines: EOL1 at high copy number, HL-60 and SK-MEL-5 at low copy number
T1 sequence: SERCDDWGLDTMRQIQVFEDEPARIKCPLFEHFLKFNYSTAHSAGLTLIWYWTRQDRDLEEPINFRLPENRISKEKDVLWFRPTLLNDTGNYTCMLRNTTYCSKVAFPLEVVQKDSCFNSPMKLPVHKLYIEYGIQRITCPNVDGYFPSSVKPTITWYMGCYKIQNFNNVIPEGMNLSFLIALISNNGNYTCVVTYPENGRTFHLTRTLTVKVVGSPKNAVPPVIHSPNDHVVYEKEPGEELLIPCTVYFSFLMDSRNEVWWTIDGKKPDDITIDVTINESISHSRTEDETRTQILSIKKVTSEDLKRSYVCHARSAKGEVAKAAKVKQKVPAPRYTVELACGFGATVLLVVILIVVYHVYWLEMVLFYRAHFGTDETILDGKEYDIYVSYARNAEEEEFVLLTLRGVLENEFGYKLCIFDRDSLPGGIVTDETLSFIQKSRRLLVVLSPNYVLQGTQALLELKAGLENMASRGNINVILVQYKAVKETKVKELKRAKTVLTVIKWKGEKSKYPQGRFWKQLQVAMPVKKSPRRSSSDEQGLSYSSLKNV
The test is described as follows: flow cytometry (MFI, anti-human APC secondary) on HL-60, EOL1 and SK-MEL-5 cells expressing IL1RAP. The source says:
FIGS. 15 and 16 show binding, as a function of mean fluorescent intensity, of humanized (hu3G7) or chimeric (Chi3G7) anti-IL1RAP antibody to various cell lines. HL-60 cells (human promyelocytic leukemia cells), EOL1 cells (human eosinophilic leukemia cells) and SK-MEL-5 cells (human melanoma cell line) express IL1RAP, and EOL1 cells do so with high expression. C0 antibody is a non-binding control IgG1. D212 is a composition having the formula: […]
The cells were resuspended in binding buffer (PBS, 2% FBS)) containing 5% NHS (normal human serum) to 2 ×10^6 cells/mL. To 50 µL of cells, 50 µL of primary antibody/ADC was added and incubated at 4° for 30 min. After incubation, cells were wasked with binding buffer 2 times and then resuspended and incubated with second antibody (anti-human APC, 1:400 in the binding buffer) at 4° for 30 min. Cells were washed with binding buffer and resuspended in 200 uL of binding buffer with propidium iodide. Cells were immediately applied to flow cytometry for analysis. Mean fluorescence intensity (MFI) of the stained sample was measured.
Background: Flow cytometry measures light scatter and fluorescence of single cells or particles in a stream.

Values after ≈ are worked out from the molar mass of the structure shown.

Turning to `COc1cc2c(cc1OCCCCCC(=O)N1CC(CCl)c3c1cc(O)c1ccccc31)N=C[C@@H]1Cc3ccccc3CN1C2=O` (stereo partly drawn) [D813, (6aS)-3-((6-(1-(chloromethyl)-5-hydroxy-1,2-dihydro-3H-benzo[e]indol-3-yl)-6-oxohexyl)oxy)-2-methoxy-7,12-dihydrobenzo[5,6][1,4]diazepino[1,2-b]isoquinolin-14(6aH)-one], the IC50 – broadly, the concentration that gives 50% inhibition – in the test on AML2 cell line worked out at 0.00028 ng/mL (≈ 0.000439 nM); in the test with HL60 cell line, 0.00072 ng/mL (≈ 0.00113 nM).

B1: chimeric, cys-substituted (S156C) anti-IL1RAP antibody 3G7 (Chi3G7; human constant domain, mouse variable domain), tested as antibody and as IQB-CBI … (antibody, V domains shown)
VH: QIQLVQSGPELKKPGETVKISCKASGYTFTNYGMHWVKQSPGEGLKWMGWINTYTGEPTYADDFKGRFGFSLETSASSAYLQINDLKNEDMATYFCARYYGNFDYWGQGTTLTVSS
VL: DIVLTQSPATLSVTPGDSVSLSCRASQSISNNLHWYQQKSHESPRLLIKYASQSISGIPSRFSGSGSGTDFTLSINSVETEDFGVYFCQQSHNWPHTFGGGTKLEIKR
modifications: IQB-CBI dimer linker-payload (D816, D818, D820, D822, D824, D826 or D828) on the substituted cysteine S156C of the heavy chain constant region (constant region sequence not given)
notes: also called Chi3G7-(IQB-CBI) ADC; Chi3G7-CLT-(IQB-CBI) ADC
On to B1, for which the binding result in test [1] was “binds”.

B2: humanized, cys-substituted (S156C) anti-IL1RAP antibody 3G7 (hu3G7), tested as antibody and as IQB-CBI antibody-drug conjugates (antibody, human IgG1, kappa, V domains shown)
VH: EVQLVQSGAEVKKPGASVKISCKASGYTFTNYGMHWVRQAPGQGLEWMGWINTYTGEPTYAQKFQGRFTFTLDTSTSTAYLEIRSLRSDDTAVYYCARYYGNFDYWGQGTLLTVSS
VL: EIVMTQSPATLSVSPGERATLSCRASQSISNNLHWYQQKPGQAPRLLIYYASQSISGIPARFSGSGSGTEFTLTISSLQSEDFAVYYCQQSHNWPHTFGQGTKLEIKR
modifications: IQB-CBI dimer linker-payload (D816, D818, D820, D822, D824, D826 or D828) attached by maleimide to the substituted cysteine (S156C); DAR 1.7-2.0
notes: also called 3G7-S156C-CYSMAB; hu3G7-IQB-CBI
On to B2, for which the binding result in test [1] was “binds”.

Source of the values: patent US10350218B2, “Isoquinolidinobenzodiazepine (IQB)-1(chloromethyl)-2,3-dihydro-1H-benzo[e]indole (CBI) dimers” (priority 2016, dated 2019).
